# Results as given in ChEMBL document CHEMBL3885861, “Open TG-GATES”.
# Species on record: Rattus norvegicus
# Assay: Open TG-GATES - Regimen: Daily Repeat
# Type: toxicity, organism-based, Sprague-Dawley
# Parameters: regimen Daily Repeat, gender Male, age 6 weeks
# Conditions: in vivo, po, route gavage; for KIDNEY_L / KIDNEY_TOTAL / KIDNEY_R: tissue Kidney; for LIVER: tissue Liver
# [1] = 3 mg/kg, 72 h, dose level Middle, time 3 day
# [2] = 3 mg/kg, 72 h, tissue Blood, dose level Middle, time 3 day
# [3] = 3 mg/kg, 72 h, tissue Plasma, dose level Middle, time 3 day
# [4] = 3 mg/kg, […], dose level Middle, time 28 day
# [5] = 3 mg/kg, […], tissue Blood, dose level Middle, time 14 day
# [6] = 3 mg/kg, […], tissue Blood, dose level Middle, time 28 day
# [7] = 3 mg/kg, […], tissue Plasma, dose level Middle, time 14 day
# [8] = 3 mg/kg, […], tissue Plasma, dose level Middle, time 28 day
# [9] = 10 mg/kg, 72 h, dose level High, time 3 day
# [10] = 10 mg/kg, 72 h, tissue Blood, dose level High, time 3 day
# [11] = 10 mg/kg, 72 h, tissue Plasma, dose level High, time 3 day
# [12] = 10 mg/kg, […], dose level High, time 14 day
# [13] = 10 mg/kg, […], dose level High, time 28 day
# [14] = 10 mg/kg, […], tissue Blood, dose level High, time 14 day
# [15] = 10 mg/kg, […], tissue Blood, dose level High, time 28 day
# [16] = 10 mg/kg, […], tissue Plasma, dose level High, time 14 day
# [17] = 10 mg/kg, […], tissue Plasma, dose level High, time 28 day
structure (smiles),measurement,setting,value
O=C(O)Cc1ccccc1Nc1c(Cl)cccc1Cl [DICLOFENAC],TERMINAL_BW,[1],236.5 g
same,Bas,[2],0%
same,Eos,[2],1%
same,Fbg,[2],214.8 mg/dL
same,Lym,[2],79.8%
same,MCH,[2],21.5 pg
same,Plat,[2],125.2 x10_4/uL
same,RBC,[2],641.4 x10_4/ul
same,WBC,[2],112.9 x10_2/uL
same,KIDNEY_L,[1],1 g
same,KIDNEY_TOTAL,[1],2.1 g
same,LIVER,[1],11.2 g
same,ALP,[3],1064.8 IU/L
same,ALT,[3],39.2 IU/L
same,AST,[3],69.2 IU/L
same,CRE,[3],0.3 mg/dL
same,DBIL,[3],0.1 mg/dL
same,GLC,[3],194.8 mg/dL
same,IP,[3],7.1 mg/dL
same,LDH,[3],186 IU/L
same,PL,[3],170.8 mg/dL
same,RALB,[3],3.4 g/dL
same,TBIL,[3],0.2 mg/dL
same,TC,[3],84.2 mg/dL
same,TG,[3],122 mg/dL
same,gamma-GTP,[3],1.2 IU/L
same,TERMINAL_BW,"3 mg/kg, […], dose level Middle, time 14 day",309.6 g
same,TERMINAL_BW,[4],391.3 g
same,Bas,[5],0%
same,Eos,[5],1%
same,Fbg,[5],226 mg/dL
same,MCH,[5],20.8 pg
same,MCHC,[5],35.6%
same,MCV,[5],58.4 fL
same,Neu,[5],14.2%
same,Plat,[5],116.2 x10_4/uL
same,RBC,[5],705.4 x10_4/ul
same,Ret,[5],3.5%
same,WBC,[5],117.1 x10_2/uL
same,Bas,[6],0%
same,Eos,[6],1%
same,Fbg,[6],216.2 mg/dL
same,Lym,[6],83.2%
same,MCH,[6],20 pg
same,MCHC,[6],36.1%
same,MCV,[6],55.4 fL
same,Plat,[6],110.4 x10_4/uL
same,RBC,[6],789.2 x10_4/ul
same,Ret,[6],2.2%
same,WBC,[6],97.8 x10_2/uL
same,KIDNEY_L,[4],1.4 g
same,KIDNEY_R,[4],1.4 g
same,KIDNEY_TOTAL,[4],2.8 g
same,LIVER,[4],15.1 g
same,ALP,[7],835 IU/L
same,ALT,[7],35 IU/L
same,AST,[7],70.8 IU/L
same,CRE,[7],0.4 mg/dL
same,GLC,[7],224.2 mg/dL
same,IP,[7],7.6 mg/dL
same,K,[7],3.5 meq/L
same,LDH,[7],198.8 IU/L
same,PL,[7],151.2 mg/dL
same,RALB,[7],3.3 g/dL
same,TBIL,[7],0.1 mg/dL
same,TC,[7],71.8 mg/dL
same,TG,[7],135.8 mg/dL
same,gamma-GTP,[7],0.8 IU/L
same,ALP,[8],618.6 IU/L
same,AST,[8],61 IU/L
same,CRE,[8],0.5 mg/dL
same,Ca,[8],10.3 mg/dL
same,DBIL,[8],0.086 mg/dL
same,GLC,[8],221.2 mg/dL
same,IP,[8],7.1 mg/dL
same,K,[8],3.6 meq/L
same,LDH,[8],177 IU/L
same,Na,[8],140.8 meq/L
same,PL,[8],130.2 mg/dL
same,RALB,[8],3.4 g/dL
same,TBIL,[8],0.1 mg/dL
same,TC,[8],60 mg/dL
same,TP,[8],6.2 g/dL
same,gamma-GTP,[8],0.6 IU/L
same,TERMINAL_BW,[9],234.4 g
same,Bas,[10],0%
same,Eos,[10],1%
same,Fbg,[10],231.8 mg/dL
same,MCH,[10],22 pg
same,MCV,[10],63.1 fL
same,Neu,[10],22.4%
same,Plat,[10],128.5 x10_4/uL
same,RBC,[10],591.2 x10_4/ul
same,Ret,[10],4.9%
same,WBC,[10],114.7 x10_2/uL
same,KIDNEY_L,[9],1 g
same,KIDNEY_R,[9],1 g
same,KIDNEY_TOTAL,[9],2 g
same,LIVER,[9],11 g
same,ALP,[11],912.8 IU/L
same,ALT,[11],35.6 IU/L
same,AST,[11],65.2 IU/L
same,CRE,[11],0.4 mg/dL
same,DBIL,[11],0.1 mg/dL
same,GLC,[11],186.6 mg/dL
same,IP,[11],7 mg/dL
same,LDH,[11],196.8 IU/L
same,Na,[11],141.6 meq/L
same,PL,[11],156.8 mg/dL
same,RALB,[11],3.3 g/dL
same,TBIL,[11],0.2 mg/dL
same,TC,[11],77.8 mg/dL
same,TG,[11],107.6 mg/dL
same,TP,[11],5.6 g/dL
same,gamma-GTP,[11],0.4 IU/L
same,TERMINAL_BW,[12],295.1 g
same,TERMINAL_BW,[13],341.6 g
same,Bas,[14],0%
same,Eos,[14],1.4%
same,Fbg,[14],278.8 mg/dL
same,Lym,[14],64%
same,MCH,[14],21.5 pg
same,MCHC,[14],34%
same,Mono,[14],4.4%
same,Neu,[14],29%
same,Plat,[14],157.6 x10_4/uL
same,RBC,[14],593.2 x10_4/ul
same,Ret,[14],12%
same,WBC,[14],192.8 x10_2/uL
same,Bas,[15],0%
same,Eos,[15],1%
same,Fbg,[15],282.4 mg/dL
same,Lym,[15],61.6%
same,MCH,[15],20.3 pg
same,MCHC,[15],32.7%
same,Neu,[15],33%
same,Plat,[15],164.9 x10_4/uL
same,RBC,[15],584.4 x10_4/ul
same,WBC,[15],199.6 x10_2/uL
same,KIDNEY_L,[13],1.3 g
same,KIDNEY_R,[13],1.3 g
same,KIDNEY_TOTAL,[13],2.6 g
same,LIVER,[12],13 g
same,ALP,[16],513.4 IU/L
same,ALT,[16],26.4 IU/L
same,AST,[16],60.4 IU/L
same,CRE,[16],0.4 mg/dL
same,GLC,[16],191.8 mg/dL
same,IP,[16],7.6 mg/dL
same,K,[16],3.9 meq/L
same,LDH,[16],213 IU/L
same,PL,[16],162.6 mg/dL
same,RALB,[16],3 g/dL
same,TBIL,[16],0.1 mg/dL
same,TC,[16],78.4 mg/dL
same,TG,[16],132.2 mg/dL
same,TP,[16],5.4 g/dL
same,gamma-GTP,[16],0.8 IU/L
same,ALP,[17],538.6 IU/L
same,ALT,[17],25.6 IU/L
same,AST,[17],55.2 IU/L
same,CRE,[17],0.4 mg/dL
same,Cl,[17],104.8 meq/L
same,DBIL,[17],0.07 mg/dL
same,GLC,[17],191.4 mg/dL
same,IP,[17],7.1 mg/dL
same,K,[17],3.9 meq/L
same,LDH,[17],226 IU/L
same,Na,[17],140.8 meq/L
same,PL,[17],146 mg/dL
same,RALB,[17],2.7 g/dL
same,TBIL,[17],0.1 mg/dL
same,TC,[17],68.2 mg/dL
same,TG,[17],123.2 mg/dL
same,TP,[17],5.3 g/dL
same,gamma-GTP,[17],0.8 IU/L
